Laboratory results as given in patent US6951651B2, “CTL epitope analogs” (priority 1999, dated 2005).
Ends that are not written are not given here.

What was measured:
T cell clone 3-3F4 = assay: Chromium release assay, peptide-sensitized targets lysed by T cell clone 3-3F4; format: cell-based, human; conditions: for Peptide Concentration (nM), Amide, 3-3F4: carboxyl terminal amide peptide; for Peptide Concentration (nM), Amide, 3-3F4 / Peptide Concentration (nM), Free Acid, 3-3F4: chromium release, T cell clone 3-3F4; for recognition by T cell clone 3-3F4 (in words): chromium release assay; for Conc. (nM): concentration of peptide in which specific killing was between 15 and 30 percent: HLA A*0201-restricted EBVLCL targets, 3-3F4 effectors, E:T=5, 10-fold dilutions 500-0.00005 nM
Description: Nonamer peptides with the substitutions as shown at each position were synthesized as described in Example 1. […] Results of these assays are shown in the right-hand column of Table II, in terms of concentration of peptide (nM) in which specific killing was between 15 and 30 percent. Results presented are the average from at least three independent experiments carried out on different days using different batches of T cell […]. Peptides were tested using 10-fold dilutions, ranging from 500-0.00005 nM.
(§1) To take advantage of the increased immunogenicity of peptides 44 and 46, while maintaining the universal recognition of the native peptide, library-directed changes were made to peptides 44 and 46, substituting back the native amino acids. A series of 21 peptides were constructed based upon the sequence of the tetra-substituted peptides 44 and 46 in each of the carboxyl terminal amidated and free acid forms. The peptides contained single, double, or triple substitutions of amino acids of the native sequence at the positions indicated. These peptides were assayed utilizing a standard chromium release assay with the screening T cell clone, 3-3F4, and a representative T cell clone (VB57) from another individual expressing a different T cell receptor.

T cell clone VB57 = assay: Chromium release assay, peptide-sensitized targets lysed by T cell clone VB57; format: cell-based, human; conditions: for Peptide Concentration (nM), Amide, VB57: carboxyl terminal amide peptide
Excerpt: as §1

Row | Substance | Peptide Concentration (nM), Amide, 3-3F4 (T cell clone 3-3F4) | Peptide Concentration (nM), Amide, VB57 (T cell clone VB57) | Peptide Concentration (nM), Free Acid, 3-3F4 (T cell clone 3-3F4) | Conc. (nM): concentration of peptide in which specific killing was between 15 and 30 percent (T cell clone 3-3F4) | other results
1 | 120N: nonamer NLVPMVTSV amide, SEQ ID NO 55 (NLVPMVTSV-NH2) [Peptide 120N] | 0.05 nM | >5 nM | – | – | –
2 | 121N: nonamer YLLPMVVTV amide, SEQ ID NO 73 (YLLPMVVTV-NH2) [Peptide 121N] | 5 nM | >5 nM | – | – | –
3 | 126N: nonamer NLLPMVVSV amide, SEQ ID NO 65 (NLLPMVVSV-NH2) [Peptide 126N] | 0.005 nM | 0.5 nM | – | – | –
4 | 121C: nonamer YLLPMVVTV, SEQ ID NO 74 (YLLPMVVTV-OH) [Peptide 121C] | – | – | >5 nM | – | –
5 | 111C: nonamer NLVPMVTTV, SEQ ID NO 44 (HCMV vaccine peptide) [Peptide 111C] | – | – | 0.05 nM | – | recognition by T cell clone 3-3F4 (in words) (T cell clone 3-3F4): equivalent to its amidated counterpart; Peptide Concentration (nM), Free Acid, VB57 (T cell clone VB57): 5 nM
6 | 57N: nonamer YLLWYVVPV amide, SEQ ID NO 33 (YLLWYVVPV-NH2) [Peptide 57N] | – | – | – | >500 nM | –
7 | 124N: nonamer YLVPMVVSV amide, SEQ ID NO 69 (YLVPMVVSV-NH2) [Peptide 124N] | 0.5 nM | 5 nM | – | – | –
8 | 122C: nonamer YLLPMVTTV, SEQ ID NO 76 (YLLPMVTTV-OH) [Peptide 122C] | – | – | >5 nM | – | Peptide Concentration (nM), Free Acid, VB57 (T cell clone VB57): >5 nM
9 | 59N: nonamer YLLWYVTPV amide, SEQ ID NO 34 (YLLWYVTPV-NH2) [Peptide 59N] | – | – | – | >500 nM | –
10 | 111N: nonamer NLVPMVTTV amide, SEQ ID NO 43 (NLVPMVTTV-NH2) [Peptide 111N] | 0.05 nM | >5 nM | – | – | –
11 | 122N: nonamer YLLPMVTTV amide, SEQ ID NO 75 (YLLPMVTTV-NH2) [Peptide 122N] | 5 nM | >5 nM | – | – | –
12 | 47N: nonamer YLLPMVTPV amide, SEQ ID NO 23 (YLLPMVTPV-NH2) [Peptide 47N] | – | – | – | 500 nM | recognition by T cell clone 3-3F4 (in words) (T cell clone 3-3F4): less active than the native sequence
13 | 112N: nonamer NLVPMVASV amide, SEQ ID NO 45 (NLVPMVASV-NH2) [Peptide 112N] | 0.5 nM | 0.5 nM | – | – | –
14 | A7N: native sequence NLVPMVATV with amidated carboxyl terminus, SEQ ID NO 18 (NLVPMVATV-NH2) [Peptide A7N] | – | – | – | 0.5 nM | –
15 | 126C: nonamer NLLPMVVSV, SEQ ID NO 66 (NLLPMVVSV-OH) [Peptide 126C] | – | – | 5 nM | – | Peptide Concentration (nM), Free Acid, VB57 (T cell clone VB57): >5 nM
16 | 48N: nonamer YLLPYVVSV amide, SEQ ID NO 29 (YLLPYVVSV-NH2) [Peptide 48N] | – | – | – | >500 nM | –
17 | 114N: nonamer YLVPMVTTV amide, SEQ ID NO 61 (YLVPMVTTV-NH2) [Peptide 114N] | 0.05 nM | 5 nM | – | – | –
18 | 117N: nonamer NLLPMVTTV amide, SEQ ID NO 49 (NLLPMVTTV-NH2) [Peptide 117N] | 0.05 nM | >5 nM | – | – | –
19 | 113N: nonamer YLVPMVVTV amide, SEQ ID NO 59 (YLVPMVVTV-NH2) [Peptide 113N] | 0.5 nM | >5 nM | – | – | –
20 | 119C: nonamer NLVPMVVSV, SEQ ID NO 54 (NLVPMVVSV-OH) [Peptide 119C] | – | – | >5 nM | – | Peptide Concentration (nM), Free Acid, VB57 (T cell clone VB57): >5 nM
21 | 49N: nonamer YLLPYVVPV amide, SEQ ID NO 30 (YLLPYVVPV-NH2) [Peptide 49N] | – | – | – | >500 nM | –
22 | 195N: nonamer YLLPMVATV amide, SEQ ID NO 57 (YLLPMVATV-NH2) [Peptide 195N] | 0.005 nM | 0.5 nM | – | – | –

Row | Substance | Peptide Concentration (nM), Amide, 3-3F4 (T cell clone 3-3F4) | Peptide Concentration (nM), Amide, VB57 (T cell clone VB57) | Peptide Concentration (nM), Free Acid, 3-3F4 (T cell clone 3-3F4) | Conc. (nM): concentration of peptide in which specific killing was between 15 and 30 percent (T cell clone 3-3F4) | other results
23 | 116N: nonamer NLLPMVVTV amide, SEQ ID NO 47 (NLLPMVVTV-NH2) [Peptide 116N] | 0.5 nM | >5 nM | – | – | –
24 | 53N: nonamer YLLWMVVPV amide, SEQ ID NO 25 (YLLWMVVPV-NH2) [Peptide 53N] | – | – | – | 500 nM | –
25 | 54N: nonamer YLLWMVTSV amide, SEQ ID NO 21 (YLLWMVTSV-NH2) [Peptide 54N] | – | – | – | 0.5 nM | –
26 | 113C: nonamer YLVPMVVTV, SEQ ID NO 60 (YLVPMVVTV-OH) [Peptide 113C] | – | – | >5 nM | – | –
27 | 56N: nonamer YLLWYVVSV amide, SEQ ID NO 22 (YLLWYVVSV-NH2) [Peptide 56N] | – | – | – | 50 nM | –
28 | 58N: nonamer YLLWYVTSV amide, SEQ ID NO 27 (YLLWYVTSV-NH2) [Peptide 58N] | – | – | – | 500 nM | –
29 | 127C: nonamer NLLPMVTSV, SEQ ID NO 68 (NLLPMVTSV-OH) [Peptide 127C] | – | – | 5 nM | – | Peptide Concentration (nM), Free Acid, VB57 (T cell clone VB57): >5 nM
30 | 114C: nonamer YLVPMVTTV, SEQ ID NO 62 (YLVPMVTTV-OH) [Peptide 114C] | – | – | 0.5 nM | – | Peptide Concentration (nM), Free Acid, VB57 (T cell clone VB57): 5 nM
31 | 119N: nonamer NLVPMVVSV amide, SEQ ID NO 53 (NLVPMVVSV-NH2) [Peptide 119N] | 0.005 nM | >5 nM | – | – | –
32 | 125C: nonamer YLVPMVTSV, SEQ ID NO 72 (YLVPMVTSV-OH) [Peptide 125C] | – | – | >5 nM | – | Peptide Concentration (nM), Free Acid, VB57 (T cell clone VB57): >5 nM
33 | 120C: nonamer NLVPMVTSV, SEQ ID NO 56 (NLVPMVTSV-OH) [Peptide 120C] | – | – | 5 nM | – | Peptide Concentration (nM), Free Acid, VB57 (T cell clone VB57): >5 nM
34 | 45N: nonamer YLLPMVVPV amide, SEQ ID NO 28 (YLLPMVVPV-NH2) [Peptide 45N] | – | – | – | >500 nM | recognition by T cell clone 3-3F4 (in words) (T cell clone 3-3F4): less active than the native sequence
35 | 52N: nonamer YLLWMVVSV amide, SEQ ID NO 24 (YLLWMVVSV-NH2) [Peptide 52N] | – | – | – | 500 nM | –
36 | 125N: nonamer YLVPMVTSV amide, SEQ ID NO 71 (YLVPMVTSV-NH2) [Peptide 125N] | 0.05 nM | >5 nM | – | – | –
37 | 110C: nonamer NLVPMVVTV, SEQ ID NO 42 (NLVPMVVTV-OH) [Peptide 110C] | – | – | 0.5 nM | – | –
38 | 123C: nonamer YLLPMVASV, SEQ ID NO 78 (YLLPMVASV-OH) [Peptide 123C] | – | – | >5 nM | – | Peptide Concentration (nM), Free Acid, VB57 (T cell clone VB57): >5 nM
39 | 117C: nonamer NLLPMVTTV, SEQ ID NO 50 (NLLPMVTTV-OH) [Peptide 117C] | – | – | 0.5 nM | – | Peptide Concentration (nM), Free Acid, VB57 (T cell clone VB57): 5 nM
40 | 195C: nonamer YLLPMVATV, SEQ ID NO 58 (YLLPMVATV-OH) [Peptide 195C] | – | – | >5 nM | – | Peptide Concentration (nM), Free Acid, VB57 (T cell clone VB57): >5 nM
41 | 55N: nonamer YLLWMVTPV amide, SEQ ID NO 26 (YLLWMVTPV-NH2) [Peptide 55N] | – | – | – | 500 nM | –
42 | 51N: nonamer YLLPYVTPV amide, SEQ ID NO 32 (YLLPYVTPV-NH2) [Peptide 51N] | – | – | – | >500 nM | –
43 | 50N: nonamer YLLPYVTSV amide, SEQ ID NO 31 (YLLPYVTSV-NH2) [Peptide 50N] | – | – | – | >500 nM | –
44 | 116C: nonamer NLLPMVVTV, SEQ ID NO 48 (NLLPMVVTV-OH) [Peptide 116C] | – | – | >5 nM | – | –
